Reference: patent publication US4826872A, “Pharmaceutical composition for treatment of cataract” (Takeda Chemical Industries, Ltd., priority 1986, dated 1989)
Read-outs that look alike come from different tables or passages of the source.

Tests used:
[1] = test system: rabbit lens epithelial cells; test: Test System I: MDA formed by auto-oxidation of docosahexaenoic acid in culture of lens epithelial cells; type: cell-based; details: for Amount of MDA in culture medium: 24 hours, normal 1.5, control 29.2
Description: (§1) The inhibitory effect of 2-0-octadecylascorbic acid [compound (I-A)]on lens epithelial cells was studied.
(§2) The lens epithelial cells were obtained from a male white rabbit weighing about 2 kg. Thus, after the […] was sacrificed, the eyeballs were immediately enucleated and subjected to the following aseptic procedures. The eyeballs were washed with Hank's balanced salt solution (pH 7.2), disinfected by 30-second immersion in 80% alcohol and re-washed with the same balanced salt solution. Then, using a small knife, the sclera was cut open from the posterior part of the bulb and the lens was taken out. The retina, vitreous body and the zonule of Zinn were removed. Then, the capsule was punctured and separated from the lens by means of forceps. (The epithelial cells came off with the capsule). The separated capsule was incubated in 0.01% EDTA-0.125% trypsin at 37° C. for 20 minutes After addition of the culture medium mentioned below, the mixture was centrifuged at 1,000 rpm for 2 minutes. By repeating this procedure, the epithelial cells were isolated. These cells were subjected to a few serial passages and used in the experiment. The culture medium was Eagle's medium (MEM) supplemented with 15% bovine fetal serum.
(§3) The following two oxidation systems were used in the experiment: the system using the cytotoxic effect of lipid peroxidation products produced by auto-oxidation of docosahexaenoic acid as an indicator and the system using the cytotoxic effect of activated oxygen species produced by the xanthine-xanthine oxidase system as an indicator. Thus, the confluent cells in dishes were incubated in the following media for 24 hours and the lipid peroxides in the cultures were determined.
(§4) (1) Normal: Cultured in MEM only
(§5) (2) Control: Cultured in MEM supplemented
with 250 μg/ml of docosahexaenoic
(3) Drug: Cultured in MEM supplemented
(§6) The thiobarbituric acid method of Yagi [Anal. Biochem., 95, 351-358 (1979)]was used for Test System I and the method of Nakashima [Chem. Pharm. Bull., 33. 5380-5384 (1985)]and Ohsawa [Anal. Sci., 1, 473-476 (1985)]using 1,3-diphenyl-2-thiobarbituric acid was employed with some modification for Test System II.

[2] = test system: rabbit lens epithelial cells; test: Test System II: MDA formed by activated oxygen species of the xanthine-xanthine oxidase system in culture of lens epithelial cells; type: cell-based; details: for Amount of MDA in culture medium: 24 hours, normal 0.005, control 0.134
Description: as §1, §2, §3, §4, §5
with 1 mM of xanthine and 0.01
U/ml of xanthine oxidase
(3) Drug: Cultured in MEM supplemented with
1 mM of xanthine and 0.01 U/ml of
xanthine oxidase plus the drug.
as §6

cataract [3] = details: cited from earlier work
[4] = test system: lens (cataract after streptozocin administration); test: Slit-lamp observation of progress of cataract in streptozocin-treated rats (Experiment 1); type: in vivo, male S.D. strain rats; details: vs control group, lens observed 7-35 days after streptozocin
Method: Test procedure: 4-week-old male S.D. strain rats were purchased from Shizuoka Prefecture Animals Farmers' Cooperative, grouped by 10 animals after 5 days of preliminary feeding, and subjected to the test. […] To the vitamin E group, tocopherol acetate (50 mg/ml) was given orally in the same way at the dose of […] (400 mg/kg/day). To the control group, tap water was orally given at 200 μl/100 g.
0 No opacity is observed in the lens.
I The surface of the lens is slightly opaque or small vacuoles appear on the equator.
II Vacuoles increase in number and distribute over the cortex while fusing with each other.
III Vacuoles distributed over the most part of the cortex begin to disappear.
IV Most vacuoles have disappeared, and the whole cortex becomes opaque and translucent.
V The nucleoplasm becomes opaque.
VI The whole lens becomes white turbid.

cataract [5] = details: instillation; many specialists doubtful; cited from earlier work
[6] = cited from Mechanism of Cataract Formation in the Human Lens (1981)

SMILES: Cc1c(C)c2c(c(C)c1O)CCC(C)(CCCC(C)CCCC(C)CCCC(C)C)O2 (racemic) [DL-α-Tocopherol, DL-α-tocopherol, reference compound]
- Amount of MDA in culture medium ([1]; drug 125 μg/ml): 4.2 ± 0.1 n mole/ml
- Concentration for the same effect relative to compound (I-A) ([1]; multiple of the concentration of compound (I-A)): about 50 times
- Amount of MDA in culture medium ([2]; drug 10 μg/ml): 0.009 ± 0.011 n mole/ml

SMILES: COc1cccc2c1C(=O)c1c(O)c3c(c(O)c1C2=O)C[C@@](O)(C(=O)CO)C[C@@H]3O[C@H]1C[C@H](N)[C@H](O)[C@H](C)O1 [Adriamycin]
- Induction of cataract (cataract [3]; [6]): induce cataract

SMILES: CCCCCCCCCCCCCCCCCCOC1=C(O)C(C(O)CO)OC1=O (stereo not shown) [Compound (I-A), 2-0-octadecylascorbic acid]
- Delay of progress of cataract (lens stage by slit lamp) ([4]; oral, 100 mg/kg/day first two days then 40 mg/kg/day, Kruskal-Wallis H-test): delayed significantly the progress of cataract
- Amount of MDA in culture medium ([1]; drug 2.5 μg/ml): 6.5 ± 0.1 n mole/ml
- Amount of MDA in culture medium ([1]; drug 5 μg/ml): 5.8 ± 0.7 n mole/ml
- Amount of MDA in culture medium ([1]; drug 10 μg/ml): 10.3 ± 0.6 n mole/ml
- Inhibition of formation of MDA (in words) ([1]; higher concentrations): inhibitory effect was attenuated
- Inhibition of formation of MDA (in words) ([1]; low concentrations (<5 μg/ml)): strongly inhibit the formation of MDA
- Effect relative to DL-α-tocopherol (in words) [2]: as effective as DL-α-tocopherol
- Inhibition of MDA (in words) [2]: substantially complete inhibition of MDA
- Amount of MDA in culture medium ([2]; drug 2 μg/ml): 0.024 ± 0.015 n mole/ml
- Amount of MDA in culture medium ([2]; drug 10 μg/ml): 0.016 ± 0.014 n mole/ml
- Amount of MDA in culture medium ([2]; drug 50 μg/ml): 0.001 ± 0.001 n mole/ml

SMILES: Nc1nc[nH]n1 [amizole]
- Induction of cataract (cataract [3]; in vivo): induce cataract

SMILES: N[C@@H](CCC(=O)N[C@@H](CS)C(=O)NCC(=O)O)C(=O)O [glutathione]
- Effectiveness for treatment of cataract (cataract [5]): effective to some extent

SMILES: CN(N=O)C(=O)N[C@@H](C=O)[C@@H](O)[C@H](O)[C@H](O)CO [streptozocin]
- Induction of cataract (cataract [3]; [6]): induce cataract

SMILES: CC(=O)Oc1c(C)c(C)c2c(c1C)CCC(C)(CCC[C@H](C)CCC[C@H](C)CCCC(C)C)O2 (stereo partly shown) [vitamin E, tocopherol acetate, reference compound]
- Delay of progress of cataract (lens stage by slit lamp) ([4]; oral tocopherol acetate 400 mg/kg/day): did not delay the progress of cataract
